From ChEMBL document CHEMBL3885861, “Open TG-GATES”

Species: Rattus norvegicus
Experiment: Open TG-GATES - Regimen: Daily Repeat
Type: toxicity, organism-based, Sprague-Dawley
Design: regimen Daily Repeat, gender Male, age 6 weeks
Conditions: in vivo, po, route gavage; for APTT / Bas / Eos / Fbg / Hb / Ht / Lym / MCH / MCHC / MCV / Mono / PT / Plat / RBC / Ret / WBC: tissue Blood; for KIDNEY_L / KIDNEY_R / KIDNEY_TOTAL: tissue Kidney; for ALP / ALT / AST / BUN / CRE / Ca / DBIL / GLC / IP / K / LDH / Na / PL / RALB / TBIL / TC / TG / TP / gamma-GTP: tissue Plasma
[1] = 0 mg/kg, 72 h, dose level Control, time 3 day
[2] = 0 mg/kg, […], dose level Control, time 7 day
[3] = 0 mg/kg, […], dose level Control, time 14 day
[4] = 0 mg/kg, […], dose level Control, time 28 day
[5] = 20 mg/kg, 72 h, dose level Low, time 3 day
[6] = 20 mg/kg, […], dose level Low, time 7 day
[7] = 20 mg/kg, […], dose level Low, time 14 day
[8] = 20 mg/kg, […], dose level Low, time 28 day
[9] = 60 mg/kg, 72 h, dose level Middle, time 3 day

SMILES: CC(C)Cc1ccc(C(C)C(=O)O)cc1 (centres undefined) [IBUPROFEN]
- TERMINAL_BW [1]: 222.9 g
- APTT [1]: 20.4 s
- Bas [1]: 0%
- Eos [1]: 1%
- Fbg [1]: 283.4 mg/dL
- Hb [1]: 13.2 g/dL
- Ht [1]: 38.4%
- Lym [1]: 79.8%
- MCH [1]: 22.3 pg
- MCHC [1]: 34.5%
- MCV [1]: 64.7 fL
- Mono [1]: 2.8%
- PT [1]: 15.5 s
- Plat [1]: 111.7 x10_4/uL
- RBC [1]: 593 x10_4/ul
- Ret [1]: 6.7%
- WBC [1]: 110.2 x10_2/uL
- KIDNEY_L [1]: 0.9 g
- KIDNEY_R [1]: 1 g
- KIDNEY_TOTAL [1]: 1.9 g
- ALP [1]: 1697.6 IU/L
- ALT [1]: 44.8 IU/L
- AST [1]: 76.6 IU/L
- BUN [1]: 17.2 mg/dL
- CRE [1]: 0.2 mg/dL
- Ca [1]: 11 mg/dL
- DBIL [1]: 0 mg/dL
- GLC [1]: 200 mg/dL
- IP [1]: 7.7 mg/dL
- K [1]: 4.1 meq/L
- LDH [1]: 208 IU/L
- Na [1]: 141.4 meq/L
- PL [1]: 143.6 mg/dL
- RALB [1]: 3 g/dL
- TBIL [1]: 0.006 mg/dL
- TC [1]: 77 mg/dL
- TG [1]: 84 mg/dL
- TP [1]: 5.5 g/dL
- gamma-GTP [1]: 1.2 IU/L
- TERMINAL_BW [2]: 270 g
- TERMINAL_BW [3]: 304.6 g
- TERMINAL_BW [4]: 398.5 g
- APTT [2]: 21.5 s
- Bas [2]: 0%
- Eos [2]: 0.8%
- Fbg [2]: 292.8 mg/dL
- Hb [2]: 13.1 g/dL
- Ht [2]: 37.3%
- Lym [2]: 80%
- MCH [2]: 21.6 pg
- MCHC [2]: 35%
- MCV [2]: 61.7 fL
- Mono [2]: 2.4%
- PT [2]: 16.1 s
- Plat [2]: 123.8 x10_4/uL
- RBC [2]: 604.6 x10_4/ul
- Ret [2]: 6.7%
- WBC [2]: 126 x10_2/uL
- Bas [3]: 0%
- Eos [3]: 0.6%
- Fbg [3]: 355.2 mg/dL
- Ht [3]: 41.1%
- Lym [3]: 83.8%
- MCHC [3]: 34.7%
- MCV [3]: 59.9 fL
- Mono [3]: 2%
- PT [3]: 16 s
- Plat [3]: 115.8 x10_4/uL
- RBC [3]: 686.2 x10_4/ul
- Ret [3]: 4.9%
- WBC [3]: 104.5 x10_2/uL
- APTT [4]: 21.9 s
- Bas [4]: 0%
- Eos [4]: 1.2%
- Fbg [4]: 340.2 mg/dL
- Hb [4]: 14.8 g/dL
- Ht [4]: 43%
- Lym [4]: 84.4%
- MCH [4]: 19.2 pg
- MCHC [4]: 34.4%
- MCV [4]: 55.9 fL
- Mono [4]: 2.2%
- PT [4]: 16.9 s
- RBC [4]: 768.2 x10_4/ul
- Ret [4]: 2.7%
- KIDNEY_L [2]: 1.1 g
- KIDNEY_R [2]: 1.2 g
- KIDNEY_TOTAL [2]: 2.3 g
- KIDNEY_L [3]: 1.2 g
- KIDNEY_R [3]: 1.2 g
- KIDNEY_TOTAL [3]: 2.4 g
- KIDNEY_L [4]: 1.3 g
- KIDNEY_R [4]: 1.4 g
- KIDNEY_TOTAL [4]: 2.7 g
- ALP [2]: 1943 IU/L
- ALT [2]: 46.8 IU/L
- AST [2]: 76.6 IU/L
- BUN [2]: 18.6 mg/dL
- CRE [2]: 0.2 mg/dL
- DBIL [2]: 0 mg/dL
- GLC [2]: 179.2 mg/dL
- IP [2]: 7.6 mg/dL
- K [2]: 4.2 meq/L
- LDH [2]: 170.2 IU/L
- Na [2]: 138.6 meq/L
- PL [2]: 136.2 mg/dL
- RALB [2]: 3.1 g/dL
- TBIL [2]: 0.004 mg/dL
- TC [2]: 71.2 mg/dL
- TG [2]: 100.8 mg/dL
- TP [2]: 5.5 g/dL
- gamma-GTP [2]: 2.6 IU/L
- ALP [3]: 1425.2 IU/L
- ALT [3]: 37.4 IU/L
- AST [3]: 65.8 IU/L
- BUN [3]: 19.2 mg/dL
- CRE [3]: 0.2 mg/dL
- DBIL [3]: 0 mg/dL
- GLC [3]: 200.4 mg/dL
- IP [3]: 7.7 mg/dL
- K [3]: 4.1 meq/L
- LDH [3]: 118.4 IU/L
- Na [3]: 140.6 meq/L
- PL [3]: 149 mg/dL
- RALB [3]: 3 g/dL
- TBIL [3]: 0.012 mg/dL
- TC [3]: 73.4 mg/dL
- TP [3]: 5.8 g/dL
- gamma-GTP [3]: 2.2 IU/L
- ALP [4]: 1191 IU/L
- ALT [4]: 35.2 IU/L
- AST [4]: 66.2 IU/L
- CRE [4]: 0.2 mg/dL
- DBIL [4]: 0 mg/dL
- GLC [4]: 196 mg/dL
- IP [4]: 6.3 mg/dL
- K [4]: 4.1 meq/L
- LDH [4]: 170.6 IU/L
- Na [4]: 140.8 meq/L
- PL [4]: 144.6 mg/dL
- RALB [4]: 3.2 g/dL
- TBIL [4]: 0.002 mg/dL
- TC [4]: 66.6 mg/dL
- TG [4]: 143.8 mg/dL
- TP [4]: 6.1 g/dL
- gamma-GTP [4]: 3 IU/L
- TERMINAL_BW [5]: 230.1 g
- APTT [5]: 21.4 s
- Bas [5]: 0%
- Eos [5]: 0.6%
- Fbg [5]: 301 mg/dL
- Hb [5]: 13.6 g/dL
- Ht [5]: 39.5%
- Lym [5]: 75.8%
- MCH [5]: 22 pg
- MCHC [5]: 34.3%
- MCV [5]: 64 fL
- Mono [5]: 3%
- PT [5]: 15.5 s
- Plat [5]: 120.5 x10_4/uL
- RBC [5]: 617.6 x10_4/ul
- Ret [5]: 6.7%
- WBC [5]: 117.5 x10_2/uL
- KIDNEY_L [5]: 1 g
- KIDNEY_R [5]: 1 g
- KIDNEY_TOTAL [5]: 2 g
- ALP [5]: 1847.8 IU/L
- ALT [5]: 42.8 IU/L
- AST [5]: 75 IU/L
- BUN [5]: 17.8 mg/dL
- CRE [5]: 0.2 mg/dL
- Ca [5]: 11 mg/dL
- DBIL [5]: 0 mg/dL
- GLC [5]: 182.8 mg/dL
- IP [5]: 7.4 mg/dL
- K [5]: 4.4 meq/L
- LDH [5]: 222 IU/L
- Na [5]: 141.4 meq/L
- PL [5]: 152.6 mg/dL
- RALB [5]: 3.1 g/dL
- TBIL [5]: 0.004 mg/dL
- TC [5]: 81.4 mg/dL
- TG [5]: 113.6 mg/dL
- TP [5]: 5.6 g/dL
- gamma-GTP [5]: 1.2 IU/L
- TERMINAL_BW [6]: 245.9 g
- TERMINAL_BW [7]: 307.6 g
- TERMINAL_BW [8]: 358.8 g
- Bas [6]: 0%
- Eos [6]: 1%
- Fbg [6]: 311 mg/dL
- Hb [6]: 13.6 g/dL
- Ht [6]: 39.4%
- Lym [6]: 75.6%
- MCH [6]: 21.4 pg
- MCHC [6]: 34.6%
- MCV [6]: 61.9 fL
- Mono [6]: 2.8%
- PT [6]: 15.9 s
- Plat [6]: 121 x10_4/uL
- RBC [6]: 638 x10_4/ul
- Ret [6]: 5.8%
- APTT [7]: 24 s
- Bas [7]: 0%
- Eos [7]: 0.8%
- Fbg [7]: 339.6 mg/dL
- Ht [7]: 41%
- Lym [7]: 80.4%
- MCHC [7]: 34.6%
- MCV [7]: 60.2 fL
- Mono [7]: 2.2%
- PT [7]: 15.8 s
- Plat [7]: 116.9 x10_4/uL
- RBC [7]: 682.4 x10_4/ul
- Ret [7]: 4.7%
- WBC [7]: 120.7 x10_2/uL
- Bas [8]: 0%
- Eos [8]: 1.2%
- Fbg [8]: 317.5 mg/dL
- Hb [8]: 14.8 g/dL
- Ht [8]: 43%
- Lym [8]: 78.5%
- MCH [8]: 19.2 pg
- MCHC [8]: 34.5%
- MCV [8]: 55.8 fL
- Mono [8]: 2.5%
- Plat [8]: 98.8 x10_4/uL
- RBC [8]: 771 x10_4/ul
- Ret [8]: 2.8%
- WBC [8]: 94.9 x10_2/uL
- KIDNEY_L [6]: 1.1 g
- KIDNEY_R [6]: 1.1 g
- KIDNEY_TOTAL [6]: 2.1 g
- KIDNEY_L [7]: 1.2 g
- KIDNEY_R [7]: 1.2 g
- KIDNEY_TOTAL [7]: 2.4 g
- KIDNEY_L [8]: 1.3 g
- KIDNEY_R [8]: 1.3 g
- KIDNEY_TOTAL [8]: 2.5 g
- ALP [6]: 1657.2 IU/L
- ALT [6]: 43.6 IU/L
- AST [6]: 73 IU/L
- BUN [6]: 18 mg/dL
- CRE [6]: 0.2 mg/dL
- DBIL [6]: 0 mg/dL
- GLC [6]: 183.4 mg/dL
- IP [6]: 6.8 mg/dL
- K [6]: 4.1 meq/L
- LDH [6]: 167.2 IU/L
- Na [6]: 139.8 meq/L
- PL [6]: 150.8 mg/dL
- RALB [6]: 3 g/dL
- TBIL [6]: 0.004 mg/dL
- TC [6]: 71.6 mg/dL
- TG [6]: 128.2 mg/dL
- TP [6]: 5.6 g/dL
- gamma-GTP [6]: 2.2 IU/L
- ALP [7]: 1385.4 IU/L
- ALT [7]: 45 IU/L
- AST [7]: 73.4 IU/L
- CRE [7]: 0.2 mg/dL
- DBIL [7]: 0 mg/dL
- GLC [7]: 197.2 mg/dL
- IP [7]: 7.2 mg/dL
- K [7]: 3.9 meq/L
- LDH [7]: 129.4 IU/L
- Na [7]: 141.8 meq/L
- PL [7]: 150 mg/dL
- RALB [7]: 3.1 g/dL
- TBIL [7]: 0.006 mg/dL
- TC [7]: 75.4 mg/dL
- TG [7]: 122.6 mg/dL
- TP [7]: 5.7 g/dL
- gamma-GTP [7]: 2.4 IU/L
- ALP [8]: 1303 IU/L
- ALT [8]: 38.8 IU/L
- AST [8]: 67.5 IU/L
- CRE [8]: 0.2 mg/dL
- DBIL [8]: 0 mg/dL
- GLC [8]: 196 mg/dL
- IP [8]: 5.6 mg/dL
- K [8]: 3.7 meq/L
- LDH [8]: 181.8 IU/L
- Na [8]: 142.5 meq/L
- PL [8]: 149.8 mg/dL
- RALB [8]: 3.3 g/dL
- TBIL [8]: 0.005 mg/dL
- TC [8]: 72.5 mg/dL
- TG [8]: 129.5 mg/dL
- TP [8]: 6.1 g/dL
- gamma-GTP [8]: 2.8 IU/L
- TERMINAL_BW [9]: 227 g
- APTT [9]: 20.5 s
- Bas [9]: 0%
